According to patent US8778958B2, “Synthesis of metabolically stable agents for alcohol and drug abuse” (priority 2008, dated 2014):
Where two headings read alike, the source gives them in different places.

Columns and labels:
Assay in all cases: biochemical
Type in all cases: binding
μ-opioid receptor = target: T1, μ-opioid receptor (Homo sapiens, UniProt P35372)
T1 construct: expressed in transfected cells; host or cells: CHO cells

δ-opioid receptor = target: T2, δ-opioid receptor (Homo sapiens, UniProt P41143); conditions: Table 1b; for Ki: N-oxides
T2 construct: expressed in transfected cells; host or cells: CHO cells
T2 sequence (P41143 whole entry): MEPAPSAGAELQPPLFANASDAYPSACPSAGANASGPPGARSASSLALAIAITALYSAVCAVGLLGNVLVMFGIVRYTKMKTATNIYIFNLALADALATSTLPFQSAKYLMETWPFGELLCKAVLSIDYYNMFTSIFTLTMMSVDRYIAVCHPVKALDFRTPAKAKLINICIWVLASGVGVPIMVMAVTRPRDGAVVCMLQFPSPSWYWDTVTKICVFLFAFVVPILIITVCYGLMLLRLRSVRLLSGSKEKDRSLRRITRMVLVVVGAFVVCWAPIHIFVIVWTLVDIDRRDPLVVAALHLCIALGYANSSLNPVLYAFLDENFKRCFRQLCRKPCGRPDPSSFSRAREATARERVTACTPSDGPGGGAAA

κ-opioid receptor = target: T3, κ-opioid receptor (Homo sapiens, UniProt P41145); conditions: read-out: Ki (nM) ± SEM, κ
T3 construct: expressed in transfected cells; host or cells: CHO cells
T3 sequence (P41145 whole entry): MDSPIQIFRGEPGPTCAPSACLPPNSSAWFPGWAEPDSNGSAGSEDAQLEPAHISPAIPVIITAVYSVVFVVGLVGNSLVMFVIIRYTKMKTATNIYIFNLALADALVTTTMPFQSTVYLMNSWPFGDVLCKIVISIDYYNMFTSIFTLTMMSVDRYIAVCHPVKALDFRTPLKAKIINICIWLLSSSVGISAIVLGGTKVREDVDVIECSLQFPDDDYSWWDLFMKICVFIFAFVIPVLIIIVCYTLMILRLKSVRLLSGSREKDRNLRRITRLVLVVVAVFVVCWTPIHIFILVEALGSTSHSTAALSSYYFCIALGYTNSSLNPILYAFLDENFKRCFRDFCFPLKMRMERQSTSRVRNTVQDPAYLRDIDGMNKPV

[1] = Ki (nM) ± SEM, μ, Table 1b, N-oxides

T1 sequence (P35372 whole entry): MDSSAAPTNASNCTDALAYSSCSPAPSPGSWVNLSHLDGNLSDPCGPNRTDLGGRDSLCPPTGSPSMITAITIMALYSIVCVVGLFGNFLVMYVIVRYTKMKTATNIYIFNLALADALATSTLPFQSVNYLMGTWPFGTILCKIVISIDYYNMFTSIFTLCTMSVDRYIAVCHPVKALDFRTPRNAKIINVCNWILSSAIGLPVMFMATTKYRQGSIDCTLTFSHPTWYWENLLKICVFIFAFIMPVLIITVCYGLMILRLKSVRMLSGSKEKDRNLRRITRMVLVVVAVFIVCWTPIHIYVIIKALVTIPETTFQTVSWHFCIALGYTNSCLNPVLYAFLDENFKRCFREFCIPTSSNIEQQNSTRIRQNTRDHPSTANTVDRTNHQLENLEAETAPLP

Compound | Ki (μ-opioid receptor; [1]) [nM] | Ki (δ-opioid receptor; Ki (nM) ± SEM, δ) [nM] | Ki (κ-opioid receptor) [nM] | Ki (μ-opioid receptor; read-out: Ki (nM) ± SEM, μ) [nM] | Ki (δ-opioid receptor; read-out: Ki (nM) ± SEM, δ) [nM] | Ki (κ-opioid receptor; Table 1b, N-oxides) [nM] | Inhibition of agonist binding, δ (δ-opioid receptor; concentration not given) [% inh]
COc1ccc(C(=O)N[C@H]2CC[C@@]3(O)[C@H]4Cc5ccc(O)c6c5[C@@]3(CC[N+]4([O-])CC3CC3)[C@H]2O6)cc1OC (stereo partly drawn) [Compound 41, 17-Cyclopropylmethyl-3,14β-dihydroxy-4,5α-epoxy-6α-[(3′,4′-dimethoxy)benzamido]morphinan-N-oxide] | 16 ± 2.7 | 51 ± 2.45 | 30 ± 3 |  |  |  | 
O=C(Cc1cccs1)N[C@@H]1CC[C@@]2(O)[C@H]3Cc4ccc(O)c5c4[C@@]2(CC[N+]3([O-])CC2CC2)[C@H]1O5 (stereo partly drawn) [Compound 25, 17-Cyclopropylmethyl-3,14β-dihydroxy-4,5α-epoxy-6β-[(thiophen-2′-yl)acetamido]morphinan-N-oxide] |  |  |  | 34.8 ± 2.08 | 752 ± 8.91 | 13 ± 1 | 
O=C(N[C@@H]1CC[C@@]2(O)[C@H]3Cc4ccc(O)c5c4[C@@]2(CC[N+]3([O-])CC2CC2)[C@H]1O5)c1cccc(O)c1 (stereo partly drawn) [Compound 34, 17-Cyclopropylmethyl-3,14β-dihydroxy-4,5α-epoxy-6β-[(3′-hydroxy)benzamido]morphinan-N-oxide] | 34 ± 2 | 1170 ± 101 | 49 ± 4 |  |  |  | 
COc1ccc(C(=O)N[C@@H]2CC[C@@]3(O)[C@H]4Cc5ccc(O)c6c5[C@@]3(CC[N+]4([O-])CC3CC3)[C@H]2O6)cc1OC (stereo partly drawn) [Compound 29, 17-Cyclopropylmethyl-3,14β-dihydroxy-4,5α-epoxy-6β-[(3′,4′-dimethoxy)benzamido]morphinan-N-oxide] | 37 ± 2 | 621 ± 16.2 | 71 ± 4.87 |  |  |  | 
CN(C(=O)c1ccc(C(C)(C)C)cc1)[C@@H]1CC[C@@]2(O)[C@H]3Cc4ccc(O)c5c4[C@@]2(CC[N+]3([O-])CC2CC2)[C@H]1O5 (stereo partly drawn) [Compound 27, 17-Cyclopropylmethyl-3,14β-dihydroxy-4,5α-epoxy-6β-N-methyl[(4′-tert-butyl)benzamido]morphinan-N-oxide] |  |  |  | 714 ± 66 | 535 ± 43.8 | 72 ± 12.6 | 
O=C(N[C@@H]1CC[C@@]2(O)[C@H]3Cc4ccc(O)c5c4[C@@]2(CC[N+]3([O-])CC2CC2)[C@H]1O5)c1ccc(C(F)(F)F)cc1 (stereo partly drawn) [Compound 22, 17-Cyclopropylmethyl-3,14β-dihydroxy-4,5α-epoxy-6β-[(4′-trifluoromethyl)benzamido]morphinan-N-oxide] | 1.4 ± 0.03 | 117 ± 5.18 | 1.9 ± 0.11 |  |  |  | 
O=C(NC1CCC2(O)C3Cc4ccc(O)c5c4C2(CC[N+]3([O-])CC2CC2)C1O5)c1ccc(C(F)(F)F)c(F)c1 (stereo not drawn) [Compound 56, 17-Cyclopropylmethyl-3,14β-dihydroxy-4,5α-epoxy-6β-[(3′-fluoro-4′-trifluoromethyl)benzamido]morphinan-N-oxide] | 8.3 ± 0.3 | 352 ± 10 | 3.8 ± 0.3 |  |  |  | 
CN(C(=O)c1ccc(I)cc1)[C@H]1CC[C@@]2(O)[C@H]3Cc4ccc(O)c5c4[C@@]2(CC[N+]3([O-])CC2CC2)[C@H]1O5 (stereo partly drawn) [Compound 47, 17-Cyclopropylmethyl-3,14-β-dihydroxy-4,5α-epoxy-6α-N-methyl-[(4′-iodo)benzamido]morphinan-N-oxide] | 27.6 ± 0.8 | 290 ± 17 | 5.9 ± 0.4 |  |  |  | 
CN(C(=O)c1ccc(Br)cc1)[C@H]1CC[C@@]2(O)[C@H]3Cc4ccc(O)c5c4[C@@]2(CC[N+]3([O-])CC2CC2)[C@H]1O5 (stereo partly drawn) [Compound 26, 17-Cyclopropylmethyl-3,14β-dihydroxy-4,5α-epoxy-6α-N-methyl[(4′-bromo)benzamido]morphinan-N-oxide] | 5.8 ± 0.21 | 51 ± 5.8 | 2.41 ± 0.19 |  |  |  | 
17-Cyclopropylmethyl-3,14-β-dihydroxy-4,5α-epoxy-6β-N-methyl-(4′-iodo)morphinan-N-oxide [Compound 62] |  |  |  | 408 ± 11.5 |  | 224 ± 15.7 | <50
CN(C(=O)c1ccc(Cl)cc1)[C@H]1CC[C@@]2(O)[C@H]3Cc4ccc(O)c5c4[C@@]2(CC[N+]3([O-])CC2CC2)[C@H]1O5 (stereo partly drawn) [Compound 50, 17-Cyclopropylmethyl-3,14-β-dihydroxy-4,5α-epoxy-6α-N-methyl-[(4′-chloro)benzamido]morphinan-N-oxide] |  |  |  | 369 ± 18 | 3330 ± 160 | 77 ± 8 | 
COC(=O)c1ccc(C(=O)N[C@@H]2CC[C@@]3(O)[C@H]4Cc5ccc(O)c6c5[C@@]3(CC[N+]4([O-])CC3CC3)[C@H]2O6)cc1 (stereo partly drawn) [Compound 38, 17-Cyclopropylmethyl-3,14β-dihydroxy-4,5α-epoxy-6β-[(4′-carbomethoxy)benzamido]morphinan-N-oxide] | 30 ± 2.1 | 1390 ± 279 | 51 ± 6 |  |  |  | 
CN(C(=O)c1ccc(C(C)(C)C)cc1)[C@H]1CC[C@@]2(O)[C@H]3Cc4ccc(O)c5c4[C@@]2(CC[N+]3([O-])CC2CC2)[C@H]1O5 (stereo partly drawn) [Compound 48] |  |  |  | 26 ± 2 | 148 ± 10 | 14 ± 1 | 
17-Cyclopropylmethyl-3,14β-dihydroxy-4,5α-epoxy-6α-(6-acetamido-2,3,4,6-tetra-O-benzyl-D-pyranose)morphinan-N-oxide [Compound 36] |  |  |  | 308 ± 13 | 1860 ± 144 | 18 ± 1 | 
O=C(N[C@@H]1CC[C@@]2(O)[C@H]3Cc4ccc(O)c5c4[C@@]2(CC[N+]3([O-])CC2CC2)[C@H]1O5)c1ccccc1 (stereo partly drawn) [Compound 32, 17-Cyclopropylmethyl-3,14β-dihydroxy-4,5α-epoxy-6β-(benzamido)morphinan-N-oxide] | 28 ± 2 | 813 ± 34 | 8.5 ± 0.92 |  |  |  | 
Cc1ccc(C(=O)N[C@@H]2CC[C@@]3(O)[C@H]4Cc5ccc(O)c6c5[C@@]3(CC[N+]4([O-])CC3CC3)[C@H]2O6)cc1 (stereo partly drawn) [Compound 21, 17-Cyclopropylmethyl-3,14β-dihydroxy-4,5α-epoxy-6β-[(4′-methyl)benzamido]morphinan-N-oxide] | 5.5 ± 0.2 | 342 ± 12.6 | 3.1 ± 0.16 |  |  |  | 
O=C(N[C@@H]1CC[C@@]2(O)[C@H]3Cc4ccc(O)c5c4[C@@]2(CC[N+]3([O-])CC2CC2)[C@H]1O5)c1ccc(Cl)c(Cl)c1 (stereo partly drawn) [Compound 43, 17-Cyclopropylmethyl-3,14β-dihydroxy-4,5α-epoxy-6β-[(3′,4′-dichloro)benzamido]morphinan-N-oxide] | 3.6 ± 0.43 | 212 ± 11 | 2 ± 0.2 |  |  |  | 
O=C(N[C@H]1CC[C@@]2(O)[C@H]3Cc4ccc(O)c5c4[C@@]2(CC[N+]3([O-])CC2CC2)[C@H]1O5)c1ccccc1 (stereo partly drawn) [Compound 37, 17-Cyclopropylmethyl-3,14β-dihydroxy-4,5α-epoxy-6α-(benzamido)morphinan-N-oxide] | 37 ± 2.6 | 822 ± 124 | 64 ± 10 |  |  |  | 
COc1cccc(C(=O)N[C@@H]2CC[C@@]3(O)[C@H]4Cc5ccc(O)c6c5[C@@]3(CC[N+]4([O-])CC3CC3)[C@H]2O6)c1 (stereo partly drawn) [Compound 30, 17-Cyclopropylmethyl-3,14β-dihydroxy-4,5α-epoxy-6β-[(3′-methoxy)benzamido]morphinan-N-oxide] | 16 ± 1 | 444 ± 39.1 | 9.7 ± 0.95 |  |  |  | 
COc1cccc(C(=O)N[C@@H]2CC[C@@]3(O)[C@H]4Cc5ccc(O)c6c5[C@@]3(CC[N+]4([O-])CC3CC3)[C@H]2O6)c1 (stereo partly drawn) [Compound 42, 17-Cyclopropylmethyl-3,14β-dihydroxy-4,5α-epoxy-6β-[(3′-methoxy)benzamido]morphinan-N-oxide] | 49 ± 8.6 | 1050 ± 38 | 16 ± 2 |  |  |  | 
